Experimental data published in PMC8126888 (RSC Medicinal Chemistry, 2020).
Like-named read-outs stand apart in the source and are kept apart here.

How the values were obtained:
[1] = tested on: primary peritoneal mouse macrophages (PMM); assay: cells; details: Macrophage
in vitro [2] = details: human, microsomes
in vitro [3] = details: mouse, microsomes
[4] = tested on: Leishmania infantum MHOM/MA(BE)/67/ITMAP263 intracellular amastigotes; assay: microbe, parasite or virus in culture; details: Macrophage, in Mus musculus
in vitro [5] = details: human
[6] = tested on: Trypanosoma cruzi, Tulahuen CL2, beta-galactosidase strain; assay: microbe, parasite or virus in culture; details: MRC5, read-out: T. cruzi Tulahuen C4 (LacZ) IC50
[7] = read-out: PMM pIC50 (converted)
[8] = pH 7.4, Microsome Clint Human, intrinsic in vitro clearance, liver microsomes
[9] = pH 7.4, Microsome Clint Mouse, intrinsic in vitro clearance, liver microsomes
[10] = HPLC, Ascentis Express RP Amide column, pH 7.4, elog D, HPLC measured log D, pH 7.4
[11] = read-out: L. inf. pIC50, intracellular amastigotes in PMM (converted), geometric mean of a minimum of two experiments ± standard error
[12] = pH 7.4, Microsome Clint,u Human, Table 2, intrinsic in vitro clearance, liver microsomes
[13] = pH 7.4, Microsome Clint,u Mouse, Table 2, intrinsic in vitro clearance, liver microsomes
[14] = pH 7.4, elog D, HPLC measured log D, pH 7.4
[15] = read-out: L. Inf. pIC50, from L. infantum intracellular amastigote IC50 (converted)
[16] = read-out: L. infantum MHOM/MA(BE)/67/ITMAP263 intracellular amastigotes IC50, intracellular amastigotes

COc1ccc([S+](C)[O-])cc1S(=O)(=O)N(Cc1ccccc1)Cc1ccccc1 (stereo not shown) [Compound 28]
IC50 [1, 7]: > 64.6 µM | microsomal CLint at 0.5 h, 0.5 µM (in vitro [2]; [8]): 233 µL/min/mg | microsomal CLint at 0.5 h, 0.5 µM (in vitro [3]; [9]): 929 µL/min/mg | chromatographic logD (physchem; [10]): 3.5 | IC50 [4, 11]: 0.589 µM

COc1ccc(S(N)(=O)=O)cc1S(=O)(=O)N(Cc1ccccc1)Cc1ccccc1 [Compound 27]
IC50 [1, 7]: > 64.6 µM | microsomal CLint at 0.5 h, 0.5 µM (in vitro [2]; [8]): 94.1 µL/min/mg | microsomal CLint at 0.5 h, 0.5 µM (in vitro [3]; [9]): 884 µL/min/mg | chromatographic logD (physchem; [10]): 3.6 | IC50 [4, 11]: 0.562 µM

COc1ccc(C#N)cc1S(=O)(=O)N(Cc1ccccc1)Cc1ccccc1 [Compound 17]
IC50 [1, 7]: > 64.6 µM | microsomal CLint at 0.5 μM (in vitro [2]; [8]): 304 µL/min/mg | chromatographic logD (physchem; [10]): 4.3 | IC50 [4, 11]: 0.437 µM

COc1ccc(C(=O)O)cc1S(=O)(=O)N(Cc1ccccc1)Cc1ccccc1 [Compound 20]
IC50 [1, 7]: > 64.6 µM | microsomal CLint at 0.5 μM (in vitro [2]; [8]): < 23 µL/min/mg | microsomal CLint at 0.5 h, 0.5 µM (in vitro [3]; [9]): 94 µL/min/mg | chromatographic logD (physchem; [10]): 2.5 | IC50 [4, 11]: 57.5 µM

N#Cc1ccccc1S(=O)(=O)N(Cc1ccccc1)Cc1ccccc1 [Compound 13]
IC50 [1, 7]: > 64.6 µM | microsomal CLint at 0.5 h, 0.5 µM (in vitro [2]; [8]): 699 µL/min/mg | chromatographic logD (physchem; [10]): 4.3 | IC50 [4, 11]: 11.2 µM

COCCN(Cc1ccc(F)cc1)S(=O)(=O)c1ccccc1OC(F)(F)F [Compound 40]
IC50 [1, 7]: > 64.6 µM | microsomal CLint at 0.5 h, 0.5 µM (in vitro [2]; [12]): 194 µL/min/mg | microsomal CLint at 0.5 h, 0.5 µM (in vitro [3]; [13]): 222 µL/min/mg | chromatographic logD (physchem; [10]): 3.8 | IC50 [4, 11]: 8.32 µM

O=S(=O)(c1ccccc1OC(F)(F)F)N(Cc1ccccc1)Cc1ccccc1 [Compound 15]
IC50 [1, 7]: > 64.6 µM | microsomal CLint at 0.5 h, 0.5 µM (in vitro [2]; [8]): 92.9 µL/min/mg | microsomal CLint at 0.5 μM (in vitro [3]; [9]): 689 µL/min/mg | chromatographic logD (physchem; [10]): 5.1 | IC50 [4, 11]: 1.1 µM

COc1ccc(N2CCOCC2)cc1S(=O)(=O)N(Cc1ccc(F)cc1)Cc1ccc(F)cc1 [Compound 25]
IC50 [1, 7]: > 64.6 µM | microsomal CLint at 0.5 h, 0.5 µM (in vitro [2]; [8]): 421 µL/min/mg | microsomal CLint at 0.5 h, 0.5 µM (in vitro [3]; [9]): 1400 µL/min/mg | chromatographic logD (physchem; [10]): 4.2 | IC50 [4, 11]: 0.324 µM

COc1ccc(C(=O)N2CCOCC2)cc1S(=O)(=O)N(Cc1ccccc1)Cc1ccccc1 [Compound 22]
IC50 [1, 7]: 45.7 µM | microsomal CLint at 0.5 μM (in vitro [2]; [8]): 810 µL/min/mg | microsomal CLint at 0.5 h, 0.5 µM (in vitro [3]; [9]): 2020 µL/min/mg | chromatographic logD (physchem; [10]): 3.8 | IC50 [4, 11]: 0.457 µM

COc1ccc(OC)c(S(=O)(=O)N(Cc2ccc(F)cc2)Cc2nc(C)no2)c1 [Compound 36]
IC50 [1, 7]: > 64.6 µM | microsomal CLint at 0.5 μM (in vitro [2]; [12]): 350 µL/min/mg | microsomal CLint at 0.5 h, 0.5 µM (in vitro [3]; [13]): 3050 µL/min/mg | chromatographic logD (physchem; [10]): 3.5 | IC50 [4, 11]: 7.76 µM

COc1ccc(OC)c(S(=O)(=O)N(Cc2ccc(F)cc2)Cc2cnc(OC)nc2OC)c1 [Compound 34]
IC50 [1, 7]: > 64.6 µM | microsomal CLint at 0.5 h, 0.5 µM (in vitro [2]; [12]): 498 µL/min/mg | microsomal CLint at 0.5 h, 0.5 µM (in vitro [3]; [13]): 3150 µL/min/mg | chromatographic logD (physchem; [10]): 3.8 | IC50 [4, 11]: 53.7 µM

COc1ccc(OC)c(S(=O)(=O)N(Cc2ccc(F)cc2)Cc2ccnn2C)c1 [Compound 35]
IC50 [1, 7]: 45.7 µM | microsomal CLint at 0.5 h, 0.5 µM (in vitro [2]; [12]): 651 µL/min/mg | microsomal CLint at 0.5 μM (in vitro [3]; [13]): 5480 µL/min/mg | chromatographic logD (physchem; [10]): 3.5 | IC50 [4, 11]: 5.25 µM

Cn1cccc(S(=O)(=O)N(Cc2ccc(F)cc2)Cc2ccc(F)cc2)c1=O [Compound 31]
IC50 [1, 7]: > 64 µM | microsomal CLint at 0.5 h, 0.5 µM (in vitro [2]; [8]): 676 µL/min/mg | microsomal CLint at 0.5 h, 0.5 µM (in vitro [3]; [9]): 2450 µL/min/mg | chromatographic logD (physchem; [14]): 3.7 | IC50 [4, 11]: 20.9 µM

COc1ccc(C(=O)N2CCOCC2)cc1S(=O)(=O)N(Cc1ccc(F)cc1)CC(C)C [Compound 44]
IC50 [1, 7]: > 64.6 µM | microsomal CLint at 0.5 h, 0.5 µM (in vitro [2]; [12]): 1050 µL/min/mg | microsomal CLint at 0.5 h, 0.5 µM (in vitro [3]; [13]): 1400 µL/min/mg | chromatographic logD (physchem; [10]): 3.6 | IC50 [4, 11]: 6.92 µM

CS(=O)(=O)c1ccccc1S(=O)(=O)N(Cc1ccccc1)Cc1ccccc1 [Compound 14]
IC50 [1, 7]: > 64.6 µM | microsomal CLint at 0.5 h, 0.5 µM (in vitro [2]; [8]): 417 µL/min/mg | microsomal CLint at 0.5 h, 0.5 µM (in vitro [3]; [9]): 2880 µL/min/mg | chromatographic logD (physchem; [10]): 4 | IC50 [4, 11]: 32.4 µM

COc1ccc(S(=O)(=O)N(Cc2ccccc2)Cc2ccccc2)cc1 [Compound 11]
IC50 [1, 7]: > 64.6 µM | microsomal CLint at 0.5 μM (in vitro [2]; [8]): 184 µL/min/mg | microsomal CLint at 0.5 μM (in vitro [3]; [9]): 2410 µL/min/mg | chromatographic logD (physchem; [10]): 4.7 | IC50 [4, 11]: 45.7 µM

COc1ccc(F)cc1S(=O)(=O)N(Cc1ccccc1)Cc1ccccc1 [Compound 18]
IC50 [1, 7]: > 64.6 µM | microsomal CLint at 0.5 μM (in vitro [2]; [8]): 955 µL/min/mg | chromatographic logD (physchem; [10]): 4.7 | IC50 [4, 11]: 1.38 µM

N#Cc1ccc(O)c(S(=O)(=O)N(Cc2ccc(F)cc2)Cc2ccc(F)cc2)c1 [Compound 16]
IC50 [1, 7]: 45.7 µM | microsomal CLint at 0.5 h, 0.5 µM (in vitro [2]; [8]): 27.4 µL/min/mg | microsomal CLint at 0.5 h, 0.5 µM (in vitro [3]; [9]): 1100 µL/min/mg | chromatographic logD (physchem; [10]): 3.7 | IC50 [4, 11]: 30.9 µM

COc1ccc(OC)c(S(=O)(=O)N(Cc2ccc(F)cc2)c2ccc(F)cc2)c1 [Compound 33]
IC50 [1, 7]: > 64.6 µM | microsomal CLint at 0.5 h, 0.5 µM (in vitro [2]; [12]): 482 µL/min/mg | microsomal CLint at 0.5 h, 0.5 µM (in vitro [3]; [13]): 1560 µL/min/mg | chromatographic logD (physchem; [10]): 4.3 | IC50 [4, 11]: 11.5 µM

COCCN(Cc1ccc(F)cc1)S(=O)(=O)c1cc(C(=O)N2CCOCC2)ccc1OC [Compound 42]
IC50 [1, 7]: > 64.6 µM | microsomal CLint at 0.5 μM (in vitro [2]; [12]): 28 µL/min/mg | microsomal CLint at 0.5 μM (in vitro [3]; [13]): 60 µL/min/mg | chromatographic logD (physchem; [10]): 2.9 | IC50 [4, 11]: 43.7 ± 0.601 µM

COc1ccc(CN2CCOCC2)cc1S(=O)(=O)N(Cc1ccc(F)cc1)Cc1ccc(F)cc1 [Compound 24]
IC50 [1, 7]: > 64.6 µM | microsomal CLint at 0.5 h, 0.5 µM (in vitro [2]; [8]): 49.4 µL/min/mg | microsomal CLint at 0.5 μM (in vitro [3]; [9]): 3200 µL/min/mg | IC50 [4, 11]: 0.525 µM

COc1ccc(C(N)=O)cc1S(=O)(=O)N(Cc1ccccc1)Cc1ccccc1 [DNDI0003366135]
IC50 ([1]; read-out: PMM IC50): > 64 µM | microsomal CLint at 0.5 μM (in vitro [2]; pH 7.4, HLM CLint, human liver microsomes): 108 µL/min/mg | microsomal CLint at 0.5 μM (in vitro [3]; pH 7.4, MLM CLint, mouse liver microsomes): 1670 µL/min/mg | CC50 at 3 days (in vitro [5]): 43.2 µM | IC50 [4, 15]: 7.41 µM | IC50 [4, 16]: 7.39 µM | IC50 [6]: > 64 µM

COc1ccc(Cl)cc1S(=O)(=O)N(Cc1ccccc1)Cc1ccccc1 [Compound 19]
IC50 [1, 7]: > 64.6 µM | microsomal CLint at 0.5 μM (in vitro [2]; [8]): 407 µL/min/mg | microsomal CLint at 0.5 μM (in vitro [3]; [9]): 1350 µL/min/mg | IC50 [4, 11]: 1.38 µM

COCCN(Cc1ccccc1)S(=O)(=O)c1cc(OC)ccc1OC [Compound 39]
IC50 [1, 7]: > 64.6 µM | microsomal CLint at 0.5 μM (in vitro [2]; [12]): 253 µL/min/mg | chromatographic logD (physchem; [10]): 3.5 | IC50 [4, 11]: 2.09 µM

O=S1(=O)c2ccccc2OCC(Cc2ccccc2)N1Cc1ccccc1 (stereo not shown) [DNDI0003370081]
IC50 ([1]; read-out: PMM IC50): 45.2 µM | chromatographic logD (physchem; HPLC, Ascentis Express RP Amide column, pH 7.4, eLogD, experimental): 5 | CC50 at 3 days (in vitro [5]): > 64 µM | IC50 [4, 15]: 33.1 µM | IC50 [4, 16]: 33.5 µM | IC50 [6]: > 64 µM

COc1ncccc1S(=O)(=O)N(Cc1ccccc1)Cc1ccccc1 [Compound 30]
IC50 [1, 7]: > 64 µM | microsomal CLint at 0.5 μM (in vitro [2]; [8]): 849 µL/min/mg | microsomal CLint at 0.5 h, 0.5 µM (in vitro [3]; [9]): 2570 µL/min/mg | chromatographic logD (physchem; [14]): 4.3 | IC50 [4, 11]: 0.646 µM

COCCN(Cc1ccc(F)cc1)S(=O)(=O)c1cc(C#N)ccc1OC [Compound 41]
IC50 [1, 7]: > 64.6 µM | microsomal CLint at 0.5 μM (in vitro [2]; [12]): < 23 µL/min/mg | microsomal CLint at 0.5 h, 0.5 µM (in vitro [3]; [13]): 585 µL/min/mg | chromatographic logD (physchem; [10]): 3.4 | IC50 [4, 11]: 8.91 µM

COc1ccc(C(N)=O)cc1S(=O)(=O)N(Cc1ccccc1)Cc1ccccc1 [Compound 21]
IC50 [1, 7]: > 64.6 µM | microsomal CLint at 0.5 μM (in vitro [2]; [8]): 108 µL/min/mg | microsomal CLint at 0.5 μM (in vitro [3]; [9]): 1670 µL/min/mg | chromatographic logD (physchem; [10]): 3.6 | IC50 [4, 11]: 7.41 µM

COc1ccc(OC)c(S(=O)(=O)N(Cc2ccccc2)Cc2ccccc2)c1 [Compound 9]
IC50 [1, 7]: > 64.6 µM | microsomal CLint at 0.5 μM (in vitro [2]; [8]): 242 µL/min/mg | microsomal CLint at 0.5 μM (in vitro [3]; [9]): 1300 µL/min/mg | chromatographic logD (physchem; [10]): 4.6 | IC50 [4, 11]: 0.372 µM
